The subject of this experiment is HVA calcium channel. In kind it is cell-based, rat.

Structures are written as SMILES.

Regarding `COC(=O)C1=C(C)NC(C)=C(C(=O)OC)C1c1ccccc1[N+](=O)[O-]` [Nifedipine, reference compound], the current after loading is listed as −734.31 pA. Further, the inhibition rate (10 µM) was 50.09%.

(Values after US10501498B2 (BGI SHENZHEN, priority 2014, dated 2019).)
